As a reminder, the IC50 is the concentration that gives 50% inhibition.

Structures are written as SMILES. Where two headings read alike, the source gives them in different places.

Series [1] deals with P. falciparum 3D7 strain. Nature of the series: SYBR Green I antimalarial activity, P. falciparum 3D7. The following applies: read-out: IC50 P. faldparum 3D7. Type of series: cell-based, Plasmodium falciparum. The procedure: (§1) In an embodiment, hierridin B and hierridin C were tested for in vitro activity towards the P. falciparum strains, in particular P. falciparum 3D7 strain and the multidrug-resistant Dd2 strain to verify whether the chlorine atom featured in hierridin C affects the activity of the compound, in particular the antimalarial activity.
In an embodiment, the laboratory-adapted P. falciparum 3D7 and Dd2 strains were cultivated on human erythrocytes suspended in RPMI 1640 medium supplemented with 25 mM HEPES, 6.8 mM hypoxanthine and 10% AlbuMAX II (Life Technologies, Carlsbad, Calif., USA), at pH 7.2. […] Staging and parasitaemia were determined by light microscopy of Giemsa-stained thin blood smears.
(§2) In an embodiment, the antimalarial activities of hierridin B and hierridin C were determined using the SYBR Green I (Life Technologies). Early ring stage parasites were tested in triplicate in a 96-well plate and incubated with drugs for 48 h (37° C., 5% CO2), parasite growth was assessed with SYBR Green I. Each compound was tested in a concentration ranging from 10-0.0097 μM (0.2% DMSO). Fluorescence intensity was measured with a multi-mode microplate reader (Triad, Dynex, Chantilly, Va., USA) with excitation and emission wavelengths of 485 nm and 535 nm, respectively, and analyzed by nonlinear regression using GraphPad Prism 5 (GraphPad Software, La Jolla, Calif., USA).

The test system of series [2] is P. falciparum multidrug-resistant Dd2 strain. Nature of the series: microbe, parasite or virus in culture. Format: cell-based, Plasmodium falciparum. As to the method:
as §1
In an embodiment, the laboratory-adapted P. falciparum 3D7 and Dd2 strains were cultivated on human erythrocytes suspended in RPMI 1640 medium supplemented with 25 mM HEPES, 6.8 mM hypoxanthine and 10% AlbuMAX II (Life Technologies, Carlsbad, Calif., USA), at pH 7.2. Cultures were maintained at 37° C. under an atmosphere of 5% O2, 3-5% CO2 and N2, and synchronized by sorbitol treatment prior to the assays. Staging and parasitaemia were determined by light microscopy of Giemsa-stained thin blood smears.
as §2

Series [3] has as its system HT-29 colon adenocarcinoma human cells. The following applies: cited from earlier work.
Series [4] relates to colon adenocarcinoma HT-29. Nature of the series: Cytotoxicity, cell lines exposed to hierridin C. Type of series: cell-based, human. The following applies: HT-29, up to 30 μg mL−1 (75.2 μM). As to the method: (§3) In an embodiment, several cell lines were exposed to hierridin C, in particular to a concentration of hierridin C up to 30 μg mL^−1 (75.2 μM). The cell lines exposed to hierridin C, were in particular the cell lines of hepatocellular carcinoma HepG2, colon adenocarcinoma HT-29, neuroblastoma SH-SY5Y, breast carcinoma T47D, normal prostate cell line PNT2, breast adenocarcinoma, RKO colon carcinoma and MG-63 osteosarcoma.

The test system of series [5] is hepatocellular carcinoma HepG2. In words: Cytotoxicity, cell lines exposed to hierridin C. Type of series: cell-based. The note with it: HepG2, up to 30 μg mL−1 (75.2 μM). The procedure:
as §3

The subject of series [6] is normal prostate cell line PNT2. Nature of the series: Cytotoxicity, cell lines exposed to hierridin C. Format: cell-based. The note with it: PNT2, up to 30 μg mL−1 (75.2 μM). As to the method: as §3
Series [7] concerns breast carcinoma T47D. In words: Cytotoxicity, cell lines exposed to hierridin C. Type of series: cell-based. The note with it: up to 30 μg mL−1 (75.2 μM). The procedure: as §3
Series [8] deals with neuroblastoma SH-SY5Y. In words: Cytotoxicity, cell lines exposed to hierridin C. Format: cell-based. The following applies: up to 30 μg mL−1 (75.2 μM). The procedure:
as §3

Series [9] concerns RKO colon carcinoma. Nature of the series: Cytotoxicity, cell lines exposed to hierridin C. Format: cell-based. The following applies: up to 30 μg mL−1 (75.2 μM). The procedure:
as §3

In series [10] the test system is MG-63 osteosarcoma. Nature of the series: Cytotoxicity, cell lines exposed to hierridin C. Type of series: cell-based. The following applies: MG-63, up to 30 μg mL−1 (75.2 μM). As to the method: as §3
Series [11] relates to breast adenocarcinoma. Nature of the series: Cytotoxicity, cell lines exposed to hierridin C. Format: cell-based. The following applies: up to 30 μg mL−1 (75.2 μM). As to the method:
as §3

As for `CCCCCCCCCCCCCCCc1cc(OC)cc(OC)c1O` [Hierridin B, reference compound], the IC50 was found to be 2090 ± 80 nM in series [1] (3D7 strain (sensitive to chloroquine), 48 h incubation, SYBR Green I); 2250 ± 670 nM in series [2] (Dd2 strain (resistant to chloroquine and mefloquine), 48 h incubation, SYBR Green I, read-out: IC50 P. faldparum Dd2). Also, the “cytotoxicity towards HT-29” value in [3] is reported as “modest, selective cytotoxicity”.
For the compound `CCCCCCCCCCCCCCCc1c(O)c(OC)cc(OC)c1Cl` [Hierridin C, 3-chloro-4,6-dimethoxy-2-pentadecylphenol], the IC50 was 1520 ± 50 nM in series [1] (Plasmodium falciparum, 3D7, 48 h); 2310 ± 110 nM in [2] (Plasmodium falciparum, DD2, 48 h, read-out: IC50 P. faldparum Dd2); around 2000 nM in [2] (Plasmodium falciparum, DD2, read-out: IC50 in P. falciparum strains). Moreover, the cytotoxicity entry in [4], in series [5], in series [6], in series [7], in series [8] and in series [9] was “No cytotoxicity was observed” in each case. Further, the cytotoxicity entry in series [10] and in series [11] was “No cytotoxicity was observed” each time. In addition, the “Resistance indices (RI)” value in series [2] (Dd2 versus 3D7) came to 0.93. Also, the therapeutical index entry in series [2] (relative to IC50 in P. falciparum strains) is recorded as “>= 50”.

(Values after patent US10287228B2, “Antimalarial agent, methods and uses thereof” (UNIVERSIDADE DO PORTO, priority 2015, dated 2019).)
